Test results as given in the supplement of paper PMC10307832.

What was measured:
Experiment in all cases: relative viability (nuclei count vs DMSO), 5 days (fraction); higher = more cells survive
Crenolanib + OSI-027 = compound: CC1(COc2ccc3c(c2)ncn3-c2ccc3cccc(N4CCC(N)CC4)c3n2)COC1 [Crenolanib] + COc1cccc2cc(-c3nc([C@H]4CC[C@H](C(=O)O)CC4)n4ncnc(N)c34)[nH]c12 [OSI-027] (partner 0.5 µM)
Method in brief: (§1)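 Dosing by pin tool came one day after lung cancer cell lines were seeded in 1536-well plates, using either one drug or a fixed anchor-drug dose plus five library-drug doses (not always all listed) in √10 steps. After 5 days, nuclei were counted on 4× images. Relative viability is treated-well nuclei count divided by vehicle-well nuclei count, and values are medians of duplicate plates.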

Tivantinib + Lapatinib = compound: O=C1NC(=O)[C@@H](c2cn3c4c(cccc24)CCC3)[C@@H]1c1c[nH]c2ccccc12 [Tivantinib] + CS(=O)(=O)CCNCc1ccc(-c2ccc3ncnc(Nc4ccc(OCc5cccc(F)c5)c(Cl)c4)c3c2)o1 [Lapatinib] (partner 2 µM)
Method in brief: as §1

Tivantinib + Dasatinib = compound: O=C1NC(=O)[C@@H](c2cn3c4c(cccc24)CCC3)[C@@H]1c1c[nH]c2ccccc12 [Tivantinib] + Cc1nc(Nc2ncc(C(=O)Nc3c(C)cccc3Cl)s2)cc(N2CCN(CCO)CC2)n1 [Dasatinib] (partner 0.075 µM)
Method in brief: as §1

Crenolanib + Pictilisib = compound: CC1(COc2ccc3c(c2)ncn3-c2ccc3cccc(N4CCC(N)CC4)c3n2)COC1 [Crenolanib] + CS(=O)(=O)N1CCN(Cc2cc3nc(-c4cccc5[nH]ncc45)nc(N4CCOCC4)c3s2)CC1 [Pictilisib] (partner 1 µM)
Method in brief: as §1

Cell Line	relative viability (Crenolanib + OSI-027; first compound 0.01 µM)	relative viability (Crenolanib + OSI-027; first compound 0.03162 µM)	relative viability (Crenolanib + OSI-027; first compound 0.1 µM)	relative viability (Crenolanib + OSI-027; first compound 0.3162 µM)	relative viability (Crenolanib + OSI-027; first compound 1 µM)	relative viability (Tivantinib + Lapatinib; first compound 0.01 µM)	relative viability (Tivantinib + Lapatinib; first compound 0.03162 µM)	relative viability (Tivantinib + Lapatinib; first compound 0.1 µM)	relative viability (Tivantinib + Lapatinib; first compound 0.3162 µM)	relative viability (Tivantinib + Dasatinib; first compound 0.01 µM)	relative viability (Tivantinib + Dasatinib; first compound 0.03162 µM)	relative viability (Tivantinib + Dasatinib; first compound 0.1 µM)	relative viability (Tivantinib + Dasatinib; first compound 0.3162 µM)	relative viability (Crenolanib + Pictilisib; first compound 0.01 µM)	relative viability (Crenolanib + Pictilisib; first compound 0.03162 µM)	relative viability (Crenolanib + Pictilisib; first compound 0.1 µM)	relative viability (Crenolanib + Pictilisib; first compound 0.3162 µM)	relative viability (Crenolanib + Pictilisib; first compound 1 µM)
PC-14	0.883	0.776	0.764	0.816	0.617	0.307	0.35	0.3	0.325	0.29	0.27	0.234	0.0998	0.661	0.787	0.588	0.744	0.65
HCC-15	0.742	0.695	0.676	0.616	0.393	0.815	0.846	0.873	0.829	0.609	0.591	0.587	0.639	0.695	0.731	0.696	0.644	0.671
NCI-H2126	0.727	0.691	0.751	0.721	0.644	0.799	0.737	0.77	0.799	0.583	0.676	0.594	0.565	0.504	0.509	0.51	0.47	0.476
NCI-H1563	0.768	0.807	0.764	0.752	0.748	1.05	0.894	0.831	0.908	0.453	0.443	0.514	0.399	0.608	0.633	0.693	0.652	0.59
NCI-H1915	0.583	0.646	0.592	0.634	0.417	0.95	0.985	1	0.996	0.305	0.277	0.294	0.334	0.871	0.957	0.932	0.915	0.586
NCI-H661	0.757	0.721	0.744	0.854	0.776	0.579	0.46	0.474	–	0.884	0.869	0.736	0.4	0.476	0.336	0.368	0.378	0.414
COR-L23	0.721	0.849	0.654	0.81	0.714	1.12	0.975	0.894	0.922	0.498	0.542	0.48	0.5	0.777	0.756	0.677	1.03	0.654
COR-L 105	0.842	0.783	0.642	1	0.691	0.412	0.359	0.29	0.359	0.42	0.287	0.334	0.216	0.455	0.363	0.341	0.514	0.411
LK-2	0.208	0.195	0.233	0.17	0.183	0.955	–	0.841	0.872	0.281	–	0.341	0.301	0.586	0.461	0.662	0.473	0.615
201T	0.505	0.605	0.695	0.763	0.692	1.08	1.01	1.04	1.14	0.562	0.566	0.547	0.554	0.724	0.704	0.695	0.689	0.634
HCC-78	0.433	0.32	–	0.345	0.338	0.477	0.786	0.647	0.456	0.416	0.376	0.378	0.377	0.24	0.223	0.239	0.216	0.237
NCI-H647	0.588	0.623	0.79	0.709	0.705	1.09	0.86	0.86	1.07	0.188	0.194	0.149	0.195	0.448	0.314	0.412	0.423	0.454
HARA	0.639	0.501	0.319	0.591	0.396	0.888	0.651	0.636	0.82	0.293	0.302	0.299	0.225	0.327	0.369	0.283	0.289	0.353
NCI-H650	0.564	0.534	0.52	0.492	0.348	0.907	–	1.02	0.964	0.504	0.359	0.461	0.527	0.9	0.806	0.901	0.801	0.83
NCI-H2085	0.707	0.745	0.706	0.865	0.709	0.824	0.77	0.765	0.82	0.331	0.244	0.239	0.209	0.45	0.412	0.481	0.469	0.5
NCI-H2347	0.326	–	–	0.482	0.427	0.891	0.923	0.956	1	0.345	0.267	0.283	0.306	0.55	0.625	0.464	0.845	0.561
NCI-H1944	0.554	0.408	0.416	0.397	0.346	0.832	0.742	0.895	0.906	0.219	0.196	0.211	0.208	0.367	0.351	0.37	0.346	0.304
NCI-H1793	0.297	0.335	0.237	0.311	0.268	0.836	0.735	0.651	–	0.345	0.419	0.376	0.346	0.302	0.315	0.322	0.312	0.385
